Data from US20070142348A1, “Microbicidal, prophylactic and therapeutic effect of ctc-96 on papilloma viruses” (REDOX PHARMACEUTICAL CORPORATION, AUDUBON […] AND […], priority 2003, published 2007).
“And” between values parts separate entries of the source, which are not always exact repeats. Identical values can stand only once.

Tests used:
HPV-11 = assay: Effect of CTC-96 on the infectivity of HPV-11 (virus incubated with CTC-96 prior to infection of foreskin fragments), human xenograft SCID mouse model; assay type: in vivo, SCID mice; settings: for Immunocytochemistry: grafts Negative for HPV (number): foreign body/fibrous counted as negative; for Histology: grafts Negative for HPV (number): foreign body reaction/fibrous tissue counted as negative; for Composite Geometric Mean Diameters (cGMD) of the Grafts, Median: 12 weeks; for Composite Geometric Mean Diameters (cGMD) of the Grafts, Mean ± SD: 12 weeks after grafting
Description: The effect of CTC-96™ on the infectivity of HPV-11 was evaluated in the human xenograft SCID mouse model. HPV type 11 is, with HPV-6, one of the two viruses responsible for the majority of anogenital warts in humans.
CTC-96™ in saline was incubated with HPV-11 prior to infection of human neonatal foreskin fragments. The fragments were then grafted onto SCID mice. The animals were monitored weekly. They were weighed at the time of grafting, and every other week during the 12 weeks of the experiment. There was no effect of HPV-11 treatment by CTC-96™ on the weight of the mice. The animals were sacrificed by cervical dislocation 12 weeks after graft implantation. Length, width, and height of the graft were measured and recorded. A composite geometric mean diameter (cGMD) of the grafts was calculated for each mouse. The grafts were then removed and analyzed by histology, immunocytochemistry and RT-PCR. Graft evaluation by immunocytochemistry utilized anti-common Papillomavirus antigen^4. Explanted grafts were homogenized and total RNA was extracted. HPV-11 viral cDNA was generated by nested RT-PCR.
Presence of HPV was defined by the presence of two out of three of the following features: acanthosis (an increase in the thickness of the stratum spinosum of the epidermis) koilocytosis (perinuclear vacuolation), or parakeratosis (persistence of the nuclei in the cells of the stratum corneum of the epidermis). As the CTC-96™ concentration increases the percentages of grafts containing HPV decreases, with none positive at the two higher concentrations. […] Two explanations are possible for the high number of foreign body reactions present in the grafts infected with the HPV-11 treated with the two highest concentrations of CTC-96™. The first is that CTC-96™ completely inactivated HPV-11. […] The alternate explanation is that CTC-96™ was toxic to the graft itself. This is unlikely since CTC-96™ has been used in vitro and in vivo in intravaginal preparations without associated toxicities at the concentrations used, and at the lowest concentration of CTC-96™ (0.05%), the number of grafts with a foreign body reaction was not different than that in the control group, thus toxicity would be unlikely to account for the lower number of HPV positive grafts (P=0.0 15; by Fisher exact test). Since CTC-96™ has a clear virucidal action at the lowest concentration (see Table 4), it is reasonable to assume that this virucidal action is present at higher concentrations, independent of the presence of a cytotoxic effect.
Table 4 presents the results and analysis of the HPV RT-PCR, which was performed by extracting total RNA from homogenized, explanted grafts and generating HPV-11 viral cDNA by nested RT-PCR. Using this assay, there is a strong and clear dose-response effect. Only with the highest dose of CTC-96™ is there complete obliteration of viral transcriptional activity.

[1] = test system: Bovine Papillomavirus Type 1 (BPV-1); assay: Inhibition of BPV-1 transformation of C127 mouse epithelial cells: pretreatment and post-treatment combined; assay type: cell-based
Description: Experiments were performed to determine if CTC-96™ can inactivate the ability of bovine papillomavirus type 1 (BPV-1) to morphologically transform C127 mouse epithelial cells in culture. Cell-free stocks of BPV-1 were treated with CTC-96™ or placebo. In order to detect the transforming ability of BPV-1, sub-confluent cultures of C127 mouse cells are infected with a standardized inoculate of BPV-1. For the positive controls, stock virus was added to the culture medium present on the cells. The presence of morphologically transformed foci was counted after 2 weeks and then again at 3 weeks. Controls included non-infected cells (with or without drug) and untreated BPV-1.
To further clarify the dynamics of CTC-96™ Papillomavirus interaction an experiment was performed to combine exposure of virus to the drug prior to cellular infection and exposure of infected cells to the drug. For this purpose BPV-1 was incubated with either CTC-96™ or placebo, diluted and then added to C127 Mouse Epithelial Cells in culture with the addition of CTC-96™ or placebo (Table 11). Addition of 10 μg/ml or 20 μg/ml CTC-96™ to the cell cultures was toxic to the cells. […] Pre-treatment with 50 μg/ml CTC-96™ but not placebo halved the foci number in the normal medium post-treatment control. Thus a small microbicidal effect is probable even at these low concentrations of CTC-96™. The main activity at these concentrations, however, is post-infection.

[2] = HPV-11 treated with CTC-96 0.05%
[3] = HPV-11 treated with CTC-96 0.2%
[4] = concentration not printed in the table row (0.2% group)
[5] = pre-treatment 50 μg/ml CTC-96, post-treatment "μg/ml CTC-96" (figure not given)
[6] = pre-treatment 50 μg/ml CTC-96, post-treatment normal medium
[7] = pre-treatment 50 μg/ml CTC-96, post-treatment placebo
[8] = pre-treatment Placebo, post-treatment 5 μg/ml CTC-96

CC(/C=C(/C)[O-])=NCCN=C(C)/C=C(/C)[O-].Cc1ncc[nH]1.Cc1ncc[nH]1.[Br-].[Co+3] [CTC-96]
Effect on the weight of the mice (HPV-11; 12 weeks of the experiment): no effect | Histology: grafts Positive for HPV (number) (HPV-11; CTC-96 0.05%): 4 | Histology: grafts Positive for HPV (percent) (HPV-11; CTC-96 0.05%): (26.7%) | Immunocytochemistry: grafts Positive for HPV (number) (HPV-11; CTC-96 0.05%): 2 | Immunocytochemistry: grafts Positive for HPV (percent) (HPV-11; CTC-96 0.05%): (12.5%) | RT-PCR: grafts HPV-11 Negative (number) (HPV-11; CTC-96 0.05%): 7 | RT-PCR: grafts HPV-11 Positive (number) (HPV-11; CTC-96 0.05%): 9 | RT-PCR: grafts HPV-11 Positive (percent) (HPV-11; CTC-96 0.05%): (56.2%) | Immunocytochemistry: grafts Negative for HPV (number) (HPV-11; CTC-96 0.05%, anti-common Papillomavirus antigen): 14 | Histology: grafts Negative for HPV (number) (HPV-11; CTC-96 0.05%): 11 | Histology: grafts Positive for HPV (number) (HPV-11; CTC-96 0.2%): 0 | Histology: grafts Positive for HPV (percent) (HPV-11; CTC-96 0.2%): (0%) | Immunocytochemistry: grafts Positive for HPV (number) (HPV-11; CTC-96 0.2%): 0 | Immunocytochemistry: grafts Positive for HPV (percent) (HPV-11; CTC-96 0.2%): (0%) | Histology: grafts Negative for HPV (number) (HPV-11; CTC-96 0.2%): 12 | Immunocytochemistry: grafts Negative for HPV (number) (HPV-11; CTC-96 0.2%): 12 | Histology: grafts Positive for HPV (number) (HPV-11; CTC-96 1%): 0 | Histology: grafts Positive for HPV (percent) (HPV-11; CTC-96 1%): (0%) | Immunocytochemistry: grafts Positive for HPV (number) (HPV-11; CTC-96 1%): 0 | Immunocytochemistry: grafts Positive for HPV (percent) (HPV-11; CTC-96 1%): (0%) | RT-PCR: grafts HPV-11 Negative (number) (HPV-11; CTC-96 1%): 15 | RT-PCR: grafts HPV-11 Positive (number) (HPV-11; CTC-96 1%): 0 | RT-PCR: grafts HPV-11 Positive (percent) (HPV-11; CTC-96 1%): (0%) | Histology: grafts Negative for HPV (number) (HPV-11; CTC-96 1%): 16 | Immunocytochemistry: grafts Negative for HPV (number) (HPV-11; CTC-96 1%): 17 | Composite Geometric Mean Diameters (cGMD) of the Grafts, Median (HPV-11; [2]): 2.01 mm | Composite Geometric Mean Diameters (cGMD) of the Grafts, Mean ± SD (HPV-11; [2]): 2.02 ± 0.179 mm | Composite Geometric Mean Diameters (cGMD) of the Grafts, Median (HPV-11; [3]): 1.88 mm | Composite Geometric Mean Diameters (cGMD) of the Grafts, Mean ± SD (HPV-11; [3]): 1.86 ± 0.196 mm | Composite Geometric Mean Diameters (cGMD) of the Grafts, Median (HPV-11; HPV-11 treated with CTC-96 1%): 1.94 mm | Composite Geometric Mean Diameters (cGMD) of the Grafts, Mean ± SD (HPV-11; HPV-11 treated with CTC-96 1%): 1.95 ± 0.139 mm | RT-PCR: grafts HPV-11 Negative (number) (HPV-11; [4]): 5 | RT-PCR: grafts HPV-11 Positive (percent) (HPV-11; [4]): (28.6%) | Virucidal effect on HPV-11 (HPV-11; highest concentration of CTC-96 (1%)): completely virucidal | Effect on the animals' mortality or weight gain (HPV-11; mouse, in vivo): no effect | Focus formation ([1]; addition of 5 μg/ml CTC-96 to the cell cultures): effectively suppressed all focus formation | Toxicity to C127 cell cultures ([1]; addition of 10 μg/ml or 20 μg/ml CTC-96 to the cell cultures): toxic | Number of Transformed Foci, Experiment 3-1 [1, 5]: 0 | Number of Transformed Foci, Experiment 3-2 [1, 5]: 0 | Number of Transformed Foci, Experiment 3-1 [1, 6]: 71 and 46 | Number of Transformed Foci, Experiment 3-2 [1, 6]: 46 and 41 | Number of Transformed Foci, Experiment 3-1 [1, 7]: 65 and 61 | Number of Transformed Foci, Experiment 3-2 [1, 7]: 39 and 62 | Number of Transformed Foci, Experiment 3-1 [1, 8]: 0 | Number of Transformed Foci, Experiment 3-2 [1, 8]: 0 | Inhibition of the virus by pretreatment of the virus (microbicidal effect) ([1]; pretreatment of BPV-1 with 50 μg/ml CTC-96): 50-60%
